The subject of one data set is NCI-H522. Kind of data set: NCI-60 cytotoxicity screen. Type of data set: cell-based. To be noted: for GI50 / CC50: Homo sapiens; for CC50: read-out: LC50 (the source's name).
Data set [1] relates to Mycobacterium tuberculosis H37Rv. Kind of data set: Antimycobacterial susceptibility, BACTEC MGIT 960 SIRE. It is filed as cell-based.
The subject of a further data set is UACC-62. Briefly: NCI-60 cytotoxicity screen. The settings on record: for GI50 / CC50: Homo sapiens; for CC50: read-out: LC50 (the source's name). It is filed as cell-based.
In data set [2] the test system is human intestinal Caco-2 cells. Kind of data set: Caco-2 permeability. Type of data set: in vitro ADME. The text has this: (§1) We tested both the absorptive (from the apical to basolateral compartments; A→BL) and secretory (from the basolateral to apical compartments; BL→A) permeabilities of our compound. We determined the amounts of compound transported at the specified time points and calculated the cumulative fractions [F (cum)] transported with respect to time according to the following equation [43]: F(cum)=∑^[CR(tk)−fCR(tk−1)].VR/CD.VD Where C is the concentration (μM), V is the volume (mL) of the receiver (R) or donor (D), tk is time point k, and f is the sample replacement factor calculated as f=(1−Vs/VR) , where VS is the volume of the sample (mL).
(§2) We determined the permeability coefficients as follows: Papp=(ΔF(cum)/Δt).(1/A).VD Where (ΔF(cum)/Δt) is the slope of the graph of F(cum) versus time (s), A is the area of the filter (cm^2), and VD is the volume of the donor compartment (mL).
(§3) We determined the active transport by calculating the uptake ratios and the intestinal efflux by calculating the efflux ratios using the following equations [8]: Uptake ratio=Papp(A→BL)/Papp(BL→A) Efflux ratio=Papp(BL→A)/Papp(A→BL) Where Papp(A→BL) is the absorptive permeability coefficient, and Papp(BL→A) is the secretory permeability coefficient.
(§4) The transport of our compounds through the Caco-2 cells was tested according to Hubatsch et al., 2007 [8]. Briefly, Caco-2 cells were seeded at a density of 2.6 × 10^5 cells/cm^2 onto Corning Transwell® polyester membrane inserts (1.2 cm^2 membrane diameter, 0.4 μm pore size, product #3460) in 12-well tissue culture plates and cultured in Dulbecco’s modified Eagle’s medium with high glucose (4500 mg/liter glucose) and L-glutamine (without pyruvate) supplemented with 10% FBS, 1% non-essential amino acids and 1% penicillin/streptomycin. Cells were incubated for at least 21 days at the specified conditions with the change of medium every two days. The TEER was measured using Millicell® ERS device for each insert after every change of medium to monitor the development of the cells monolayer. Cell monolayers with TEER values less than 300 Ω.cm^2 at the end of the maintenance period were not suitable for the experiment and discarded. The integrity of the cell monolayers were further confirmed by testing the phenol red permeability through the cells. The transport experiments were started by replacing the incubation culture media with the transport buffers with or without the tested compounds, the transport was tested in both directions (apical to basolateral and basolateral to apical). We used Hank’s balanced salt solution without phenol red as the transport medium buffered with either methanesulfonic acid (pH = 6.5) as the transport buffer in the apical compartment or buffered with HEPES and NaHCO3 (pH = 7.4) as the transport buffer in the basolateral compartment. NSC745885 was dissolved in the transport buffers with the aid of 1% DMSO to get final concentrations between 4–5 μM. Samples from the receiver compartments were withdrawn at different time intervals (0 min, 30 min, 45 min, 60 min, 75 min, 90 min, 120 min) and the amounts of transported drug were determined using the HPLC. After the transport experiments, the TEER was checked for every cell monolayer to assure that the monolayers were not compromised from the effect of the tested drug. The apparent permeabilities were calculated as mentioned in the previous section.
On the technique in general: Passage across Caco-2 layers is used to estimate intestinal permeability.

A short description of another data set: Caco-2 permeability. Type of data set: in vitro ADME, human. To be noted: human, Caco-2.
Description: as §1, §2, §3, §4

In the next data set the test system is MGH-U1R cell line. Also on record: method as in PMID 25431950. To be noted: MGH-U1R; cited from earlier work.
The test system of a further data set is MGH-U1 cells. Also on record: method as in PMID 25431950. The settings on record: cited from earlier work.
[3] abbreviates: Fig 7, read-out: mean log10 of the GI50 values (converted).

Data on two compounds can be found in paper PMC4839570, “Novel Anthra[1,2-c][1,2,5]Thiadiazole-6,11-Diones as Promising Anticancer Lead Compounds: Biological Evaluation, Characterization & Molecular Targets Determination” (PLoS ONE, 2016).

SMILES strings stand for the structures. Converted amounts (≈) assume the structure as drawn. Read-outs that look alike come from different tables or passages of the source.

By GI50 is commonly meant the concentration that inhibits growth by half. One may read the TGI as the concentration giving total growth inhibition. Lower therefore signals more potent growth arrest. As usually defined, the MIC is the lowest concentration that inhibits growth of the organism. A low value points to a more susceptible organism. In the case of `O=C1c2ccccc2C(=O)c2c1cc(Cl)c1nsnc21` [NSC757963], the GI50 was 1.66 µM with NCI-H522 (setting [3]); 1.6 µM with NCI-H522 (five-dose, read-out: GI50); 3.47 µM with UACC-62 (setting [3]); 4.43 µM in the data set with UACC-62 (five-dose, read-out: GI50). The CC50 in the data set with NCI-H522 (five-dose) came out at 8.18 µM; in the data set with UACC-62 (five-dose), 41.8 µM. Further, the TGI in the data set with NCI-H522 (five-dose) stood at 3.62 µM; with UACC-62 (five-dose), 17.0 µM. The “Effect on M. tuberculosis H37Rv” value is recorded as “Growth” in data set [1] (1.25 μg/mL); “Growth” in data set [1] (2.5 μg/mL); “Growth” in data set [1] (5 μg/mL); “Growth” in data set [1] (7.5 μg/mL); “Inhibition” in data set [1] (10 μg/mL); “Inhibition” in data set [1] (15 μg/mL). Also, the “Effect on M. tuberculosis H37Rv” value in data set [1] (20 μg/mL) was “Inhibition”. This compound also yielded an MIC in data set [1] (Mycobacterium tuberculosis, 336 h, H37Rv, 14 days) of 10 µg/mL (≈ 33.3 µM).
As usually defined, the efflux ratio is a quotient of directional permeabilities that is used to spot active efflux. `O=C1c2ccccc2C(=O)c2c1ccc1nsnc21` [NSC745885, anthra[1,2-c][1,2,5]thiadiazole-6,11-dione]: the GI50 is 2.24 µM in the data set on NCI-H522 (setting [3]); 1.66 µM with NCI-H522 (five-dose, read-out: GI50); 1.82 µM in the data set with UACC-62 (setting [3]); 1.45 µM in the data set with UACC-62 (five-dose, read-out: GI50). For the same compound, the CC50 in the data set on NCI-H522 (five-dose) is 9.31 µM; in the data set with UACC-62 (five-dose), 5.79 µM. Also, the TGI in the data set on NCI-H522 (five-dose) was found to be 3.93 µM; in the data set with UACC-62 (five-dose), 2.90 µM. In data set [2], the Permeability ranking result is listed as “High; completely absorbed”. For the same compound, the Uptake ratio in data set [2] (Papp(A→BL)/Papp(BL→A)) is on record as 0.898. Moreover, the Papp A→B at 120 min in the data set “Caco-2 permeability” (4–5 μM, apical pH 6.5, basolateral pH 7.4, read-out: Absorptive permeability Papp(A→BL)) was 31.8 ×10⁻⁶ cm/s. For the same compound, the Papp B→A at 120 min in “Caco-2 permeability” (4–5 μM, apical pH 6.5, basolateral pH 7.4, read-out: Secretory permeability Papp(BL→A)) was 35.4 ×10⁻⁶ cm/s. Besides, the efflux ratio at 120 min in the data set “Caco-2 permeability” (Papp(BL→A)/Papp(A→BL)) was 1.11. Moreover, the “concentration that completely suppressed growth of the resistant cell line” value in the data set on MGH-U1R cell line was 2.5 µM. Moreover, the “concentration that inhibited the non-resistant cells” value in the data set on MGH-U1 cells is 2.5 µM.
